Data: patent US11479802B2, “Assays for screening activity of modulators of members of the hydroxy steroid (17-beta) dehydrogenase (HSD17B) family” (Regeneron Pharmaceuticals, Inc., priority 2017, dated 2022)

Assays:
HSD17B11 = target: T1, HSD17B11 (Homo sapiens, UniProt Q8NBQ5); experiment: Steroid substrate panel against HSD17B family member B11; assay type: biochemical; settings: substrate at 50 μM; estradiol set as 100%
T1 construct: made in house
T1 sequence (Q8NBQ5 20-300): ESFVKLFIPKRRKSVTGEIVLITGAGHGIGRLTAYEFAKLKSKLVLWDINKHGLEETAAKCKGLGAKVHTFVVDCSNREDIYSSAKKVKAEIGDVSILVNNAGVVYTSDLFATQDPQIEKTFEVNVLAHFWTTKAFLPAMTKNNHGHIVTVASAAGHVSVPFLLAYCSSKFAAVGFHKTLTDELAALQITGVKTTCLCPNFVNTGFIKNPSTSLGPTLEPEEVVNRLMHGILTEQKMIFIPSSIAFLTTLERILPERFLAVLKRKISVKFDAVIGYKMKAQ

HSD17B10 = target: T2, HSD17B10 (Homo sapiens, UniProt Q99714); experiment: Steroid substrate panel against HSD17B family member B10; assay type: biochemical; settings: substrate at 50 μM; estradiol set as 100%
T2 construct: made in house
T2 sequence (Q99714 1-261): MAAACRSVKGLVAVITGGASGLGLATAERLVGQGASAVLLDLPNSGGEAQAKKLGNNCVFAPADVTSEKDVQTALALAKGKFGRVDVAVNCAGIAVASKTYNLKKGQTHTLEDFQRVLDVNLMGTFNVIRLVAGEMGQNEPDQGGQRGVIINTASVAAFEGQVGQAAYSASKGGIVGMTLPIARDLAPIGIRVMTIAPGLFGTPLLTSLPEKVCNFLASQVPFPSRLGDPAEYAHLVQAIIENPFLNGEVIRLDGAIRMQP

[1] = target: T3, HEK293 cells overexpressing HSD17B13 isoform A (Homo sapiens, UniProt Q7Z5P4); experiment: HEK293 cell-based substrate consumption assay (LC-MS); settings: 1 μM substrate, 2 hours or 48 hours
T3 construct: expressed in transfected cells; host or cells: HEK293
T3 sequence (Q7Z5P4 20-300): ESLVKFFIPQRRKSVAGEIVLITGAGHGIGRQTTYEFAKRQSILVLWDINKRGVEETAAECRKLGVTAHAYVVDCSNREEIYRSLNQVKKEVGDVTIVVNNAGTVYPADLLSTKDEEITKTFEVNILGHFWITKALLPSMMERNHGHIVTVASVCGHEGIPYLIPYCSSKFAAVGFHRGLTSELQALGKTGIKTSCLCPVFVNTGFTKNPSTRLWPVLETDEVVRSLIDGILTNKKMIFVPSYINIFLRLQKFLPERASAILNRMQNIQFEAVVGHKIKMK

HSD17B5 = target: T4, HSD17B5 (Homo sapiens, UniProt P42330); experiment: Steroid substrate panel against HSD17B family member B5; assay type: biochemical; settings: substrate at 50 μM; estradiol set as 100%
T4 construct: made in house
T4 sequence (P42330 1-323): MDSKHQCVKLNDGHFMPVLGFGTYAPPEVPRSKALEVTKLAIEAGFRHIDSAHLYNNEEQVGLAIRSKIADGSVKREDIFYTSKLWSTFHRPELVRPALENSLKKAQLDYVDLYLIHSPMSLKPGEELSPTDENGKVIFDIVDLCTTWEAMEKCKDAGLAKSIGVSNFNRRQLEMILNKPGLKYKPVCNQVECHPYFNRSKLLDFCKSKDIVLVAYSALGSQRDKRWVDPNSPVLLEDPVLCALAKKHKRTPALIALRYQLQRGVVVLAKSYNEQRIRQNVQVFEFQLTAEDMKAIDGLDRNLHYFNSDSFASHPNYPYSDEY

HSD17B2 = target: T5, HSD17B2 (Homo sapiens, UniProt P37059); experiment: Steroid substrate panel against HSD17B family member B2; assay type: biochemical; settings: substrate at 50 μM; estradiol set as 100%
T5 construct: made in house
T5 sequence (P37059 1-387): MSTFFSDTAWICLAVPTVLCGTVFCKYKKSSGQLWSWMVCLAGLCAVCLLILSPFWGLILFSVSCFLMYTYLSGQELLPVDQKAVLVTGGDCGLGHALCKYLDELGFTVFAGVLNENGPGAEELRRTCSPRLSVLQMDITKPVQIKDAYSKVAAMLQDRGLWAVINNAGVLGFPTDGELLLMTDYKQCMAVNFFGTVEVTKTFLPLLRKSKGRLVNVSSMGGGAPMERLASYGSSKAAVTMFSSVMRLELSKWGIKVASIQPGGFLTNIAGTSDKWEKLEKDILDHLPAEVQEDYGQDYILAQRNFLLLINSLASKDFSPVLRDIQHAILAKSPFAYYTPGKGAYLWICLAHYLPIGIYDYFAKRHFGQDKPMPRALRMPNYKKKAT

HSD17B1 [2] = target: T6, HSD17B1 (Homo sapiens, UniProt P14061); experiment: Steroid substrate panel against HSD17B family member B1; assay type: biochemical; settings: substrate at 50 μM; estradiol set as 100%
T6 construct: made in house
T6 sequence (P14061 1-328): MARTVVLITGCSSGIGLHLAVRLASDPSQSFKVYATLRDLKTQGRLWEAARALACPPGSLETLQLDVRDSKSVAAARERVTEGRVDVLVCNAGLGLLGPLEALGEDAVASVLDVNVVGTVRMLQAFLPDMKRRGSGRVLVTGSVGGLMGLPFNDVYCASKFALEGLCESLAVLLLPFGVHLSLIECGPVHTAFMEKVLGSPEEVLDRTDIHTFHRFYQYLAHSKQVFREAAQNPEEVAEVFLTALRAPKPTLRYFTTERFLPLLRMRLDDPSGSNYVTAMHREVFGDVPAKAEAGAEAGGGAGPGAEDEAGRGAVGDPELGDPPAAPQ

human HSD17B13 [3] = target: T7, human HSD17B13 (Homo sapiens, UniProt Q7Z5P4); experiment: Substrate screening of steroid and bioactive lipid libraries against purified recombinant HSD17B13 (NADH-linked luciferase assay); assay type: biochemical; settings: for HSD17B13 Enzymatic Activity Relative Light Units: 500 μM NAD+, 100 ng enzyme, 3 hours at 23° C.; for HSD17B13 Enzymatic Activity Percent Estradiol Control: normalized to 50 μM estradiol after subtraction of 5% DMSO
T7 sequence (Q7Z5P4 20-300): T3 sequence (Q7Z5P4 20-300)
Procedure, shortened: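 Substrates (bioactive lipids 5 μM, steroids 50 μM; 5% DMSO) tested with 500 μM NAD+ and 100 ng recombinant human HSD17B13 in 0.2 M Tris-HCl pH 7.5, 3 h, 23° C. Luminescent NADH detection followed 1 h later; RLU normalized to estradiol (50 μM, 100%) and DMSO (0%) controls.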

HSD17B4 = target: T8, HSD17B4 (Homo sapiens, UniProt P51659); experiment: Steroid substrate panel against HSD17B family member B4; assay type: biochemical; settings: substrate at 50 μM; estradiol set as 100%
T8 construct: made in house
T8 sequence (P51659 1-736): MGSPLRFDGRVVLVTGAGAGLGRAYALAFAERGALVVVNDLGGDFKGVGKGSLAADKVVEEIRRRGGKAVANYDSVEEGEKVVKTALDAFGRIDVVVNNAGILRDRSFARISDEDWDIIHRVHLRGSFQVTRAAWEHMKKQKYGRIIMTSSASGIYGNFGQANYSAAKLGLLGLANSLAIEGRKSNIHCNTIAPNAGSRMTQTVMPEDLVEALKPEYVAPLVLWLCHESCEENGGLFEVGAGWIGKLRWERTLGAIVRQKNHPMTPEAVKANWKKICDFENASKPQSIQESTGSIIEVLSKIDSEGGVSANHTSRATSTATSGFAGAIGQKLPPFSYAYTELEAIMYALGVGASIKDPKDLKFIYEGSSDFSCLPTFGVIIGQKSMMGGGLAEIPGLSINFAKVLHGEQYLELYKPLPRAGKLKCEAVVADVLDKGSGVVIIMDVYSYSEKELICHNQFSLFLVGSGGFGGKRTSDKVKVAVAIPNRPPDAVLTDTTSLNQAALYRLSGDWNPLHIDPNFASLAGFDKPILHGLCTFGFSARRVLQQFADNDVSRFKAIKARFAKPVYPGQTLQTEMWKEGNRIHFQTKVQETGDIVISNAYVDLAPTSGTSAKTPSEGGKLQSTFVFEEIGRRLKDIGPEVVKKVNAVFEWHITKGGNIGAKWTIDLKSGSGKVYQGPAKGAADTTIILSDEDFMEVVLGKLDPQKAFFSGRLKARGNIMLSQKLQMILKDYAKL

HSD17B1 [4] = target: T6, HSD17B1; experiment: Cell-based assay of estrone to estradiol conversion by HSD17B1 (LC-MS); settings: over 48 hour period
Excerpt: The capacity of HSD17B1 to convert estrone to estradiol, and the capacity of equilin to inhibit HSD17B1 was confirmed in a cell-based assay. Liquid chromatography and mass spectrometry (LC-MS) was used to measure estrone and estradiol concentration over time.

[5] = target: T9, recombinant HSD17B13 (E20-K300) (Homo sapiens, UniProt Q7Z5P4); experiment: Biochemical NADH-linked screen of bioactive lipids as substrates (Example 2); settings: 5 μM substrate, 100 μM NAD+, four hours at room temperature
T9 construct: recombinant HSD17B13 (E20-K300)
T9 sequence (Q7Z5P4 20-300): T3 sequence (Q7Z5P4 20-300)
Protocol: The biochemical assay described in Example 1 was repeated using bioactive lipids as substrates. In brief, 5 μM of each substrate was incubated in 40 μL reactions containing 1 μg of recombinant HSD17B13 (E20-K300) or beta-2 microglobulin (as a negative control) and 100 μM NAD^+ in 0.2M Tris-HCl, pH 7.5. After four hours of incubation at room temperature, 10 μL of each reaction was mixed with 10 μL luciferase and read, after 40 minutes, on an Envision Plate Reader (Perkin Elmer).

human HSD17B13 [6] = target: T7, human HSD17B13; experiment: Biochemical NADH-linked screen of compound libraries as substrates for HSD17B13 (Example 1); settings: 50 μM substrate, 0.5 mM NAD+, 24 hr at 25 degrees C.
Protocol: A biochemical assay was employed to screen the compounds from the library. The assay employed the following reaction conditions: 0.1 M Potassium phosphate buffer pH 7.5, 0.5 mM NAD^+, 50 μM substrate in DMSO 2% reaction volume or DMSO alone (no substrate) as a control, and 1 μl of purified enzyme or green fluorescent protein (GFP) as a control, with a final reaction volume of 100 microliters. Test samples were subject to a 24 hr incubation at 25 degrees C. After incubation, 20 μL reaction above+20 μL luciferase were incubated at room temperature for 1 h and read on an Envision Plate Reader (Perkin Elmer).

SMILES | Percent of Control (POC), B11 (HSD17B11) [%] | Percent of Control (POC), B10 (HSD17B10) [%] | Percent of Control (POC), B5 (HSD17B5) [%] | Percent of Control (POC), B2 (HSD17B2) [%] | Percent of Control (POC), B1 (HSD17B1 [2]) [%] | HSD17B13 Enzymatic Activity Relative Light Units (human HSD17B13 [3]; Steroid Library, 50 μM steroid) [RLU] | HSD17B13 Enzymatic Activity Percent Estradiol Control (human HSD17B13 [3]; Steroid Library, 50 μM steroid) [%] | Percent of Control (POC), B4 (HSD17B4) [%] | substrate for HSD17B13 [5] | other results
C[C@]12CCC(O)C[C@@H]1CC[C@@H]1[C@@H]2CC[C@]2(C)[C@@H](O)CC[C@@H]12 (stereo partly shown) [Androstanediol] | 0.0 | 1.9 | 216 | 46.9 | 0.3 | 488440 | 5.73 | 63.0 | – | conversion of substrate catalyzed by HSD17B13 in cells [1]: did not substantially catalyze the conversion
C[C@]12CC[C@H]3C(=CCc4cc(O)ccc43)[C@@H]1CCC2=O [Equilin] | – | – | – | – | – | 186840 | 0.46 | – | – | inhibition of conversion of estrone to estradiol by HSD17B1 (HSD17B1 [4]): can be inhibited by equilin
CCCCC/C=C\C[C@@H](O)/C=C/C=C/C=C\[C@@H](O)CCCC(=O)O [Leukotriene B4] | – | – | – | – | – | – | – | – | is a substrate | identified as enzymatic substrate of HSD17B13 (human HSD17B13 [3]; 265 unique putative substrates tested): enzymatic substrates; HSD17B13 Enzymatic Activity Relative Light Units (human HSD17B13 [3]; Bioactive Lipid Library, 5 μM bioactive lipid (Estradiol Control 50 μM)): 1743000 RLU; HSD17B13 Enzymatic Activity Percent Estradiol Control (human HSD17B13 [3]; Bioactive Lipid Library, 5 μM bioactive lipid): 115.40%
C[C@]12CC[C@@H](O)C[C@H]1CC[C@@H]1[C@@H]2C(=O)C[C@@]2(C)[C@H]1CC[C@]2(O)C(=O)CO [TetrahydroCortisone] | 0.0 | 52.2 | 104 | 1.0 | 0.0 | 232320 | 1.25 | 0.5 | – | –
C[C@]12CC[C@H]3[C@@H](CC[C@@]45O[C@@H]4C(O)=C(C#N)C[C@]35C)[C@@H]1CC[C@@H]2O [Trilostane] | – | – | – | – | – | 1896560 | 30.32 | – | – | suitability as substrate for HSD17B13 (human HSD17B13 [6]): suitable substrates
CCCCCC[C@@H](O)C/C=C\CCCCCCCC(=O)O [ricinoleic acid] | – | – | – | – | – | – | – | – | identified as representative substrates | –
